{
  "source": "patent US9592223B2",
  "about": "“Small molecule inhibitors of MALT1” (Cornell University, priority 2012, dated 2017)",
  "key": {"HBL-1 cells": {"test_system": "HBL-1 cells", "assay": "MI-2 intracellular concentration in HBL-1 cells by LC-MS", "assay_type": "in vitro ADME, human"}, "[1]": {"biological_target": "T1, MALT1 paracaspase domain (329-728) (Homo sapiens, UniProt Q9UDY8)", "T1 construct": "MALT1 paracaspase domain (329-728) presented a major peak at 55,988.4 Da", "T1 sequence (Q9UDY8 329-728)": "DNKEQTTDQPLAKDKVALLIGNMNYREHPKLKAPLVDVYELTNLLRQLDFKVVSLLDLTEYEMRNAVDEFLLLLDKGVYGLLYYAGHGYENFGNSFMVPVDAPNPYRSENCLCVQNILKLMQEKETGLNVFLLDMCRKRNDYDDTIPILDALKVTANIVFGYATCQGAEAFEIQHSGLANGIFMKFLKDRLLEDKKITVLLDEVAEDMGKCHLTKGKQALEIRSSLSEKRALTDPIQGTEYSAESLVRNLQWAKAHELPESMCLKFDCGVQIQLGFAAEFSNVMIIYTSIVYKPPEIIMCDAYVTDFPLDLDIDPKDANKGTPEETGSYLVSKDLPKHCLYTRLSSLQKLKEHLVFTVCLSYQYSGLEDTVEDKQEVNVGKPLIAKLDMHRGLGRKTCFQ", "assay": "LC-MS covalent modification", "assay_type": "binding", "experimental": "The final results were ranked on the predicted binding free energy and the cluster size for each docking conformation.\nHPLC/ESI-MS experiments were carried out on 5 μl sample at 1 mg/ml protein concentration. Separation of proteins was performed on a HP 1100 system (Hewlett Packard, Palo Alto, Calif., USA) employing a 1 mm×150 mm LC Packings column packed with POROS R1/H (Perseptive Biosystems, Foster City, Calif., USA). The column was kept at 80° C. Samples were injected onto the column using a CTC PAL autosampler (CTC, Zwingen Switzerland) fitted with a Valco model C6UW HPLC valve (Valco, Houston, Tex., USA) and a 10 μl injection loop. HPLC was controlled by MassLynx software (Micromass, Manchester, UK). UV detection was performed at 214 nm. Eluent A was water containing 0.05% TFA. Eluent B was a 1:9 mixture of water:acetonitrile containing 0.045% TFA. A gradient from 20% B to 90% B was run in 20 minutes. The flow rate was typically 60 μl/min. The total flow from the LC system was introduced into the UV detection cell prior to introduction in the ESI source. The HPLC system was controlled and the signal from the UV detector was processed using MassLynx software. […] Data were recorded and processed using MassLynx software. […]"}, "[2]": {"test_system": "TMD8 ABC-DLBCL xenografts", "assay": "TMD8 xenograft in NOD-SCID mice", "assay_type": "in vivo", "conditions": "IP 25 mg/kg/day", "experimental": "Animals were sacrificed 24 hr after the fourteenth injection.\nEight-week old male SCID NOD.CB17-Prkdc^scid/J mice were subcutaneously injected with low-passage 10^7 human HBL-1, TMD8 or OCI-Ly1 cells. Treatment was administered by intra-peritoneal injection. Tumor volume was monitored by three-weekly digital calipering. All procedures followed US NIH protocols and were approved by the Animal Institute Committee of the Weill Cornell Medical College.\nEight-week old male SCID NOD.CB17-Prkdc^scid/J mice were purchased from Jackson Laboratories (Bar Harbor, Minn.) and housed in a clean environment. Mice were subcutaneously injected with low-passage 10^7 human TMD8 or OCI-Ly1 cells in 50% matrigel (BD Biosciences, #354234). Treatment was initiated when tumors reached an average size of 120 mm^3 (17 days post-transplantation). Drugs were reconstituted in DMSO and stored at −80° C. until used and were administered by intra-peritoneal injection. Tumor volume was monitored by three-weekly digital calipering (Fisher Scientific, Thermo Scientific, Rockford, Ill.) and calculated using the formula (smallest diameter^2×largest diameter)/2. Data were expressed as mean±SEM, and differences were considered statistically significant at p<0.05 by paired Student's t-test. All procedures involving animals followed US NIH protocols and were approved by the Animal Institute Committee of the Weill Cornell Medical College of Cornell University.\nParaffin-embedded tumor xenografts were sectioned, dewaxed and submitted to antigen retrieval. For IF-P, Alexa Fluor-488 conjugated secondary antibodies from Invitrogen where used and cell nuclei where counterstained with DAPI. Fluorescent images were taken using an Axiovert 200M fluorescent microscope (Carl Zeiss Inc., Thornwood, N.Y.). Oberkochen, Germany). For IHC, biotin-conjugated secondary antibodies where used. Then avidin/biotin peroxidase was applied to the slides (Vector Laboratories). Color was developed with diaminobenzoate chromogen peroxidase substrate (Vector) and counterstained with hematoxilin-eosyn. […]"}, "[3]": {"test_system": "ABC-DLBCL MALT1 independent cell lines U2932 and HLY-1", "assay": "Growth inhibition, MALT1 independent ABC-DLBCL cell lines", "assay_type": "cell-based, human", "conditions": "increasing concentrations, single dose, 48 hr", "experimental": "Endogenous MALT1 activity was evaluated by Western blotting for A20, BCL10 and CYLD; and NF-κB activation, by phospho-IκB-α and total IκB-α. Dependence on MALT1 proteolytic activity for proliferation was tested by 50[…]μM Z-VRPR-FMK treatment for 48 hr. […] The U2932 and HLY1 ABC-DLBCL cell lines harbor mutations in TAK1 and A20, which activate NF-κB signaling downstream of MALT1.\nCell proliferation was determined by ATP quantification using a luminescent method (CellTiter-Glo, Promega, Madison, Wis.) and Trypan blue dye-exclusion (Sigma, St. Louis, Mo.). Cell viability in drug-treated cells was normalized to their respective controls (fractional viability) and results are given as 1-fractional viability. […]\nDLBCL cell lines were grown in exponential growth conditions during the 48 hr of treatment. Cell proliferation was determined by ATP quantification using a luminescent method (CellTiter-Glo, Promega, Madison, Wis.) and Trypan blue dye-exclusion (Sigma, St. Louis, Mo.). Luminescence was measured using the Synergy4 microplate reader (BioTek Instruments, Winooski, Vt.). Standard curves for each cell line were calculated by plotting the cell number (determined by the Trypan blue method) against their luminescence values and number of cells was calculated accordingly. […]"}},
  "data": [
    {"smiles": "COCCOc1nc(-c2ccc(Cl)c(Cl)c2)n(-c2ccc(NC(=O)CCl)cc2)n1", "note": "[MI-2]", "values": [
      {"measurement": "intracellular concentration", "setting": "HBL-1 cells; 0.2 μM treated HBL-1 cells, 2 hr", "value": 5, "unit": "µM"},
      {"measurement": "free drug within the cells", "setting": "HBL-1 cells; 0.2 μM, by 12 hr", "value": "virtually no detectable free MI-2"},
      {"measurement": "covalent binding to MALT1", "setting": "[1]; LC-MS", "value": "bind covalently"},
      {"measurement": "increase of the major peak of MALT1 upon incubation", "setting": "[1]; LC-MS, 55,988.4 Da shifted to 56,407.5 Da", "value": 419.1, "unit": "Da"},
      {"measurement": "xenograft growth vs. vehicle", "setting": "[2]; fourteen injections, p=0.015", "value": "profoundly suppressed the growth"},
      {"measurement": "apoptotic cells (TUNEL assay)", "setting": "[2]; p<0.0001", "value": "significant increase in apoptotic cells"},
      {"measurement": "proliferation (Ki-67 staining)", "setting": "[2]; p=0.0006", "value": "significant decrease in proliferation"},
      {"measurement": "growth inhibition", "setting": "[3]", "value": "resistant"}
    ]}
  ]
}
